In patent US8044069B2, “Compounds as calcium channel blockers” (Abbott Laboratories, priority 2008, dated 2011):

Target: human Cav2.2 (Homo sapiens, UniProt Q00975)
Assay: Assessment of calcium channel activity using FLIPR (Ca2+ influx in IMR32 cells)
Assay type: cell-based
Details: IMR32 cells endogenously expressing human Cav2.2; 60 minute pre-incubation; 2 μM nifedipine; depolarized with 80 mM KCl, 5 mM CaCl2
Method in brief: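 FLIPR measured Ca2+ influx triggered by 80 mM KCl depolarization together with a step to 5 mM external CaCl2. Percent inhibition relative to uninhibited activity was fitted sigmoidally for IC50.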

Chain of human Cav2.2 (Q00975 whole entry): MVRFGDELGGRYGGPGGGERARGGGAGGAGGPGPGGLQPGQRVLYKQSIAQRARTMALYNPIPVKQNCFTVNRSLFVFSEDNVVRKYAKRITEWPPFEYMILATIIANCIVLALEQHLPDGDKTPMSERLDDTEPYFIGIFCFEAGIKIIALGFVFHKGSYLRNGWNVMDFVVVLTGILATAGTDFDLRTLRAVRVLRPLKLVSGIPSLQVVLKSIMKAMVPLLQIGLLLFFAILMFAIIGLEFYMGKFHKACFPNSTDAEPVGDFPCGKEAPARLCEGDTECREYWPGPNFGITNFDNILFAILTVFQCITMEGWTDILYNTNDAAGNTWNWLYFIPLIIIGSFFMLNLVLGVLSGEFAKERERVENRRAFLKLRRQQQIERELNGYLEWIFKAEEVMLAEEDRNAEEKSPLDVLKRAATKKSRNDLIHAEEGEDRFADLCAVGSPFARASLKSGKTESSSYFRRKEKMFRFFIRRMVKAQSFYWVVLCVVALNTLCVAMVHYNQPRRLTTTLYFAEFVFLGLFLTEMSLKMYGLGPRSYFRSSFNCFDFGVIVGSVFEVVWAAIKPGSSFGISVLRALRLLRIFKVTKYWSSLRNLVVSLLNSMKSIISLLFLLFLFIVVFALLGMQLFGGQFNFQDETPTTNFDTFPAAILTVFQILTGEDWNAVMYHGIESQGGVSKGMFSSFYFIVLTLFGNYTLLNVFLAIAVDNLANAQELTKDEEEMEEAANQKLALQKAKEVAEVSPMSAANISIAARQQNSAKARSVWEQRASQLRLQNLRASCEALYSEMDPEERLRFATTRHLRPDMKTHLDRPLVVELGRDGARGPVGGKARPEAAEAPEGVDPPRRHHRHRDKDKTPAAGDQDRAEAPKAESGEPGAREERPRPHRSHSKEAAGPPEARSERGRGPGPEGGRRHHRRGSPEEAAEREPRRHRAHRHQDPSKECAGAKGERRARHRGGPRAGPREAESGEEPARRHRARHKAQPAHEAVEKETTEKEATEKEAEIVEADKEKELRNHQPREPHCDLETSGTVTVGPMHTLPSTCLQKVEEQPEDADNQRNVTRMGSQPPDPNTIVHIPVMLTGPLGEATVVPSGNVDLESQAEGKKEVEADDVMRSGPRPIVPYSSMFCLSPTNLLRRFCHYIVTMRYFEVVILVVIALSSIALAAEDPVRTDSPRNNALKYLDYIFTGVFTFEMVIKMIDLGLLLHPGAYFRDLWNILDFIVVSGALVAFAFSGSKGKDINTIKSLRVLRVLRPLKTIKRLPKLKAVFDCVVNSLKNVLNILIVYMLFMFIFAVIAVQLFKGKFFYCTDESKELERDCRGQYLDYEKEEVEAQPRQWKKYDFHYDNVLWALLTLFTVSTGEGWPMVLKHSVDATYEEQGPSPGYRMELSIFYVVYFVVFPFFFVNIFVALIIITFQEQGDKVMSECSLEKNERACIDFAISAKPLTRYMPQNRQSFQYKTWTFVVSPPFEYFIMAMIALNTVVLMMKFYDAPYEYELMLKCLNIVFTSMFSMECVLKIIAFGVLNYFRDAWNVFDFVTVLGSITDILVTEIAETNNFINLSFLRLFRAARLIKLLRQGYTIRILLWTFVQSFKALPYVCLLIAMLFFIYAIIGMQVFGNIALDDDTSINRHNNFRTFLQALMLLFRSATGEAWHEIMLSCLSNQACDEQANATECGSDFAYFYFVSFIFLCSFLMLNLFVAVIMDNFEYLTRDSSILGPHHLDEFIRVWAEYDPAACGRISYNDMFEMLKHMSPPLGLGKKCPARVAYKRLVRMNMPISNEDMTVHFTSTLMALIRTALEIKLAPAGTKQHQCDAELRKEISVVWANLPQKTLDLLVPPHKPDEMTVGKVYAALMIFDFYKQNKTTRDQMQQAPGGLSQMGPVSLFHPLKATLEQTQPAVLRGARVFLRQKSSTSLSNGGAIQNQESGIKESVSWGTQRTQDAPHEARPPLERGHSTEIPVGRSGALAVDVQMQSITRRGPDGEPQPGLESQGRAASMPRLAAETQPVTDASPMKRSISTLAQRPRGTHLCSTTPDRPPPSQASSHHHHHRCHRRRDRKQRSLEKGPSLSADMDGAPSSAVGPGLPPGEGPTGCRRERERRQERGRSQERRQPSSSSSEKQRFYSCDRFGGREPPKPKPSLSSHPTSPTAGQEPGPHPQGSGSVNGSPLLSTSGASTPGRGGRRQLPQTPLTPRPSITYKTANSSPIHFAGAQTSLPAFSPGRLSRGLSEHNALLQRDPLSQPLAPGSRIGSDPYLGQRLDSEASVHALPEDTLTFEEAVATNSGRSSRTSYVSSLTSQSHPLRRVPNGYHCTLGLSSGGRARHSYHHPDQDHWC
Chain of human Cav2.2 (P54289 25-951 partner limits assumed): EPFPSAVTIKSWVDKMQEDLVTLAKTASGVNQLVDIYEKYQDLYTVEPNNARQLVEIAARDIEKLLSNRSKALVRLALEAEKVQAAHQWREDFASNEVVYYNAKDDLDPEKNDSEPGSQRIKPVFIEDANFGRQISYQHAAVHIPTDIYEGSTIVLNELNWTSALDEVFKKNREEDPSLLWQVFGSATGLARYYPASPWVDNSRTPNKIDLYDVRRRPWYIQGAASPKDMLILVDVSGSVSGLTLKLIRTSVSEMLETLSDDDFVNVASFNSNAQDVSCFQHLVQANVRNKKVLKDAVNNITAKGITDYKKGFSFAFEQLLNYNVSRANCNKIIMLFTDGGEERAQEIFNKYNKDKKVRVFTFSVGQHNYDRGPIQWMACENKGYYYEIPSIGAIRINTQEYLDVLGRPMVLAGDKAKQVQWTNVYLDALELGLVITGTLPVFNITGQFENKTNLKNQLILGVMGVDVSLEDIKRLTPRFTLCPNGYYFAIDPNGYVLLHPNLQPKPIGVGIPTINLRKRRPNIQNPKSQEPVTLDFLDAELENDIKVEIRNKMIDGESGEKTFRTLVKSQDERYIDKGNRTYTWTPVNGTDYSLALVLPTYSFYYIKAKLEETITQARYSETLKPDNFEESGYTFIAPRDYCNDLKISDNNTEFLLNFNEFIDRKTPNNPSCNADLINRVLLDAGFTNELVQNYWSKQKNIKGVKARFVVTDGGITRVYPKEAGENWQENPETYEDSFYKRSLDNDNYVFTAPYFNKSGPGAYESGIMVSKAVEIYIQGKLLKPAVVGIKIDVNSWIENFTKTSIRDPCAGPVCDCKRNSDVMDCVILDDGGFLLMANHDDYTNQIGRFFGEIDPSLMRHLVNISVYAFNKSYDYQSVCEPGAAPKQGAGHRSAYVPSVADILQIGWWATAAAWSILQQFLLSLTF
Chain of human Cav2.2 (P54289 952-1103 partner limits assumed): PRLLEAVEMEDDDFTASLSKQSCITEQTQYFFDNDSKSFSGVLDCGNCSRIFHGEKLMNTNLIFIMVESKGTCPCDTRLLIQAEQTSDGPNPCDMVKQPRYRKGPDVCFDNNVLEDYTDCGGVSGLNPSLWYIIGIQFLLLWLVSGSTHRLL
Chain of human Cav2.2 (P54284 whole entry partner): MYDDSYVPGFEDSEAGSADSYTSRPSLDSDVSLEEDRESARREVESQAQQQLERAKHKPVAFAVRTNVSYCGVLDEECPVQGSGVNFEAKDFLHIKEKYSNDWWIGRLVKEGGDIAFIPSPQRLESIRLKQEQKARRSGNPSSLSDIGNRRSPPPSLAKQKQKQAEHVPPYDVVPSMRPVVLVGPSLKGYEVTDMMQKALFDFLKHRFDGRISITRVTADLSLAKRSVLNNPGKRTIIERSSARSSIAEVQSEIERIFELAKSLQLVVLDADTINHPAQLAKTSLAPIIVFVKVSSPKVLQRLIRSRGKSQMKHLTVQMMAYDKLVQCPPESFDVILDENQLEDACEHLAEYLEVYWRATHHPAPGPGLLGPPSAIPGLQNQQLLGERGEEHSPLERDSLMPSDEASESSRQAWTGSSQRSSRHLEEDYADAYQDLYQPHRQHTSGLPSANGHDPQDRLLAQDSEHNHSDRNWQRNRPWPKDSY

Row | Structure (SMILES) | IC50
1 | O=C1C(c2ccc(F)cc2)CCN1Cc1nc(-c2ccc(C(F)(F)F)cc2)no1 (stereo not drawn) [Example 189, 3-(4-fluorophenyl)-1-({3-[4-(trifluoromethyl)phenyl]-1,2,4-oxadiazol-5-yl}methyl)pyrrolidin-2-one] | 5.82 µM
2 | O=C1N(Cc2nc(-c3ccc(C(F)(F)F)cc3)no2)CCC1(c1ccc(F)cc1)c1ccc(F)cc1 [Example 190, 3,3-bis(4-fluorophenyl)-1-({3-[4-(trifluoromethyl)phenyl]-1,2,4-oxadiazol-5-yl}methyl)pyrrolidin-2-one] | 7.07 µM
3 | O=C1N(Cc2nc(-c3ccc(C(F)(F)F)cc3)no2)CCCC1(c1ccc(F)cc1)c1ccc(F)cc1 [Example 191, 3,3-bis(4-fluorophenyl)-1-({3-[4-(trifluoromethyl)phenyl]-1,2,4-oxadiazol-5-yl}methyl)piperidin-2-one] | 6.87 µM
4 | O=C(CN1CCCC(c2ccccc2)C1=O)Nc1ccc(Cl)cn1 (stereo not drawn) [Example 192, N-(5-chloropyridin-2-yl)-2-(2-oxo-3-phenylpiperidin-1-yl)acetamide] | 12 µM
5 | O=C1N(Cc2nc(-c3ccc(Cl)cc3)no2)CCC1(c1ccccc1)c1ccccc1 [Example 193, 1-{[3-(4-chlorophenyl)-1,2,4-oxadiazol-5-yl]methyl}-3,3-diphenylpyrrolidin-2-one] | 4.67 µM
6 | O=C1N(Cc2nc(-c3ccc(F)cc3)no2)CCC1(c1ccccc1)c1ccccc1 [Example 194, 1-{[3-(4-fluorophenyl)-1,2,4-oxadiazol-5-yl]methyl}-3,3-diphenylpyrrolidin-2-one] | 4.08 µM
7 | Cc1ccc(-c2noc(CN3CCC(c4ccccc4)(c4ccccc4)C3=O)n2)cc1 [Example 195, 1-{[3-(4-methylphenyl)-1,2,4-oxadiazol-5-yl]methyl}-3,3-diphenylpyrrolidin-2-one] | 3.57 µM
8 | O=C1N(Cc2noc(-c3ccc(C(F)(F)F)cc3)n2)CCC1(c1ccccc1)c1ccccc1 [Example 196, 3,3-diphenyl-1-({5-[4-(trifluoromethyl)phenyl]-1,2,4-oxadiazol-3-yl}methyl)pyrrolidin-2-one] | 4.01 µM
9 | CN(C(=O)CN1CCCC(c2ccccc2)(c2ccccc2)C1=O)C1CCN(Cc2cccc(C(F)(F)F)c2)CC1 [Example 197, N-methyl-2-(2-oxo-3,3-diphenylpiperidin-1-yl)-N-{1-[3-(trifluoromethyl)benzyl]piperidin-4-yl}acetamide] | 1 µM
10 | O=C(CN1CCCC(c2ccccc2)(c2ccccc2)C1=O)NC1CN(Cc2ccc(F)c(C(F)(F)F)c2)C1 [Example 198, N-{1-[4-fluoro-3-(trifluoromethyl)benzyl]azetidin-3-yl}-2-(2-oxo-3,3-diphenylpiperidin-1-yl)acetamide] | 0.72 µM
11 | O=C1N(Cc2nc(-c3ccc(OC(F)(F)F)cc3)no2)CCCC1(c1ccccc1)c1ccccc1 [Example 199, 3,3-diphenyl-1-({3-[4-(trifluoromethoxy)phenyl]-1,2,4-oxadiazol-5-yl}methyl)piperidin-2-one] | 5.98 µM
12 | O=C(CN1CCCC(c2ccccc2)(c2ccccc2)C1=O)NC1CCN(Cc2cccc(C(F)(F)F)c2)CC1 [Example 200, 2-(2-oxo-3,3-diphenylpiperidin-1-yl)-N-{1-[3-(trifluoromethyl)benzyl]piperidin-4-yl}acetamide] | 1.01 µM
13 | O=C(CN1CCCC(c2ccccc2)(c2ccccc2)C1=O)NC1CN(Cc2cccc(C(F)(F)F)c2F)C1 [Example 201, N-{1-[2-fluoro-3-(trifluoromethyl)benzyl]azetidin-3-yl}-2-(2-oxo-3,3-diphenylpiperidin-1-yl)acetamide] | 0.86 µM
14 | CC(C)(C)c1ccc(-c2noc(CN3CCC(c4ccccc4)(c4ccccc4)C3=O)n2)cc1 [Example 202, 1-{[3-(4-tert-butylphenyl)-1,2,4-oxadiazol-5-yl]methyl}-3,3-diphenylpyrrolidin-2-one] | 10.4 µM
15 | O=C(CN1CCC(c2ccccc2)(c2ccccc2)C1=O)N1CCC(c2ccc(F)cc2)(c2ccc(F)cc2)C1 [Example 203, 1-{2-[3,3-bis(4-fluorophenyl)pyrrolidin-1-yl]-2-oxoethyl}-3,3-diphenylpyrrolidin-2-one] | 2.16 µM
16 | O=C(CN1CCC(c2ccc(F)cc2)(c2ccc(F)cc2)C1=O)N1CCC(c2ccc(F)cc2)(c2ccc(F)cc2)C1 [Example 204, 1-{2-[3,3-bis(4-fluorophenyl)pyrrolidin-1-yl]-2-oxoethyl}-3,3-bis(4-fluorophenyl)pyrrolidin-2-one] | 3.04 µM
17 | O=C(CN1CCCC(c2ccccc2)(c2ccccc2)C1=O)N1CCC(c2ccc(F)cc2)(c2ccc(F)cc2)C1 [Example 205, 1-{2-[3,3-bis(4-fluorophenyl)pyrrolidin-1-yl]-2-oxoethyl}-3,3-diphenylpiperidin-2-one] | 3.32 µM
18 | O=C1N(Cc2nc(-c3ccc(O)cc3)no2)CCCC1(c1ccccc1)c1ccccc1 [Example 206, 1-{[3-(4-hydroxyphenyl)-1,2,4-oxadiazol-5-yl]methyl}-3,3-diphenylpiperidin-2-one] | 4.89 µM

Row | Structure (SMILES) | IC50
19 | O=C1N(Cc2nc(Cc3ccc(Cl)cc3)no2)CCCC1(c1ccccc1)c1ccccc1 [Example 207, 1-{[3-(4-chlorobenzyl)-1,2,4-oxadiazol-5-yl]methyl}-3,3-diphenylpiperidin-2-one] | 5.03 µM
20 | O=C(CN1CCC(c2ccc(F)cc2)(c2ccc(F)cc2)C1=O)NC1CCN(Cc2cccc(C(F)(F)F)c2)CC1 [Example 208, 2-[3,3-bis(4-fluorophenyl)-2-oxopyrrolidin-1-yl]-N-{1-[3-(trifluoromethyl)benzyl]piperidin-4-yl}acetamide] | 2.4 µM
21 | CC(C)COc1ccc(-c2noc(CN3CCCC(c4ccccc4)(c4ccccc4)C3=O)n2)cc1 [Example 209, 1-{[3-(4-isobutoxyphenyl)-1,2,4-oxadiazol-5-yl]methyl}-3,3-diphenylpiperidin-2-one] | 10.7 µM
22 | O=C(CN1CCC(c2ccc(F)cc2)(c2ccc(F)cc2)C1=O)N1C[C@@H]2CCCN(Cc3cccc(C(F)(F)F)c3)[C@@H]2C1 [Example 210, 3,3-bis(4-fluorophenyl)-1-(2-oxo-2-{(4aS,7aS)-1-[3-(trifluoromethyl)benzyl]octahydro-6H-pyrrolo[3,4-b]pyridin-6-yl}ethyl)pyrrolidin-2-one] | 0.96 µM
23 | O=C1N(Cc2nc(-c3ccc(C(F)(F)F)nc3)no2)CCC1(c1ccccc1)c1ccccc1 [Example 211, 3,3-diphenyl-1-({3-[6-(trifluoromethyl)pyridin-3-yl]-1,2,4-oxadiazol-5-yl}methyl)pyrrolidin-2-one] | 3.15 µM
24 | O=C1N(Cc2nc(-c3ccc(C(F)(F)F)nc3)no2)CCC1(c1ccc(F)cc1)c1ccc(F)cc1 [Example 212, 3,3-bis(4-fluorophenyl)-1-({3-[6-(trifluoromethyl)pyridin-3-yl]-1,2,4-oxadiazol-5-yl}methyl)pyrrolidin-2-one] | 2.63 µM
25 | O=C1N(Cc2nc(CCc3ccc(Cl)cc3)no2)CCCC1(c1ccccc1)c1ccccc1 [Example 213, 1-({3-[2-(4-chlorophenyl)ethyl]-1,2,4-oxadiazol-5-yl}methyl)-3,3-diphenylpiperidin-2-one] | 1.6 µM
26 | O=C1N(Cc2nc(-c3ccc(Cl)nc3)no2)CCC1(c1ccccc1)c1ccccc1 [Example 214, 1-{[3-(6-chloropyridin-3-yl)-1,2,4-oxadiazol-5-yl]methyl}-3,3-diphenylpyrrolidin-2-one] | 2.78 µM
27 | O=C1N(Cc2nc(-c3cc(F)cc(F)c3)no2)CCC1(c1ccccc1)c1ccccc1 [Example 215, 1-{[3-(3,5-difluorophenyl)-1,2,4-oxadiazol-5-yl]methyl}-3,3-diphenylpyrrolidin-2-one] | 6.89 µM
28 | O=C(CN1CCC(c2ccc(F)cc2)C1=O)N1Cc2ccc(C(F)(F)F)cc2C1 (stereo not drawn) [Example 216, 3-(4-fluorophenyl)-1-{2-oxo-2-[5-(trifluoromethyl)-1,3-dihydro-2H-isoindol-2-yl]ethyl}pyrrolidin-2-one] | 9.43 µM
29 | O=C(CN1CCC(c2ccc(F)cc2)(c2ccc(F)cc2)C1=O)Nc1ccc(C(F)(F)F)cn1 [Example 217, 2-[3,3-bis(4-fluorophenyl)-2-oxopyrrolidin-1-yl]-N-[5-(trifluoromethyl)pyridin-2-yl]acetamide] | 2.62 µM
30 | O=C(CN1CCC(c2ccc(F)cc2)(c2ccc(F)cc2)C1=O)Nc1ccc(C(F)(F)F)cc1 [Example 218, 2-[3,3-bis(4-fluorophenyl)-2-oxopyrrolidin-1-yl]-N-[4-(trifluoromethyl)phenyl]acetamide] | 6.8 µM
31 | O=C1N(Cc2nc(-c3cncc(C(F)(F)F)c3)no2)CCC1(c1ccccc1)c1ccccc1 [Example 219, 3,3-diphenyl-1-({3-[5-(trifluoromethyl)pyridin-3-yl]-1,2,4-oxadiazol-5-yl}methyl)pyrrolidin-2-one] | 2.93 µM
32 | O=C1N(Cc2nc(-c3cnccc3C(F)(F)F)no2)CCC1(c1ccccc1)c1ccccc1 [Example 220, 3,3-diphenyl-1-({3-[4-(trifluoromethyl)pyridin-3-yl]-1,2,4-oxadiazol-5-yl}methyl)pyrrolidin-2-one] | 1.99 µM
33 | O=C1N(Cc2nc(-c3cccnc3)no2)CCC1(c1ccccc1)c1ccccc1 [Example 221, 3,3-diphenyl-1-[(3-pyridin-3-yl-1,2,4-oxadiazol-5-yl)methyl]pyrrolidin-2-one] | 5.67 µM
34 | O=C1N(Cc2nc(-c3ccncc3)no2)CCC1(c1ccccc1)c1ccccc1 [Example 222, 3,3-diphenyl-1-[(3-pyridin-4-yl-1,2,4-oxadiazol-5-yl)methyl]pyrrolidin-2-one] | 5.43 µM
35 | O=C(CCCN1CCC(c2ccccc2)(c2ccccc2)C1=O)N1Cc2ccc(C(F)(F)F)cc2C1 [Example 223, 1-{4-oxo-4-[5-(trifluoromethyl)-1,3-dihydro-2H-isoindol-2-yl]butyl}-3,3-diphenylpyrrolidin-2-one] | 2.04 µM
36 | O=C(CN1CCC(c2ccc(F)cc2)(c2ccc(F)cc2)C1=O)Nc1ccc(C(F)(F)F)nc1 [Example 224, 2-[3,3-bis(4-fluorophenyl)-2-oxopyrrolidin-1-yl]-N-[6-(trifluoromethyl)pyridin-3-yl]acetamide] | 3.88 µM
